Here are results for ten compounds from ChEMBL document CHEMBL3045012, “Quinoline-based azetidinone and thiazolidinone analogues as antimicrobial and antituberculosis agents” (2013).

Converted amounts (≈) assume the structure as drawn.

What all share (assay type): functional
In assay [1] the test system is Mycobacterium tuberculosis. The assay can be described thus: Antituberculosis activity against Mycobacterium tuberculosis H37Rv assessed as growth inhibition after 12 to 28 days by L-J MIC method. Particulars: for MIC: Mycobacterium tuberculosis, H37Rv.
Assay [2] deals with Candida albicans. The assay can be described thus: Antimicrobial activity against Candida albicans MTCC 183 assessed as growth inhibition after 48 hr by agar streak dilution technique. Particulars: MTCC 183, 48 h.
Assay [3] has as its system Aspergillus niger. The assay can be described thus: Antimicrobial activity against Aspergillus niger MTCC 282 assessed as growth inhibition after 48 hr by agar streak dilution technique. To be noted: MTCC 282, 48 h.
In assay [4] the test system is Pseudomonas aeruginosa. The assay can be described thus: Antimicrobial activity against Pseudomonas aeruginosa MTCC 741 assessed as growth inhibition after 24 hr by agar streak dilution technique. Particulars: MTCC 741, 24 h.
Assay [5] relates to Escherichia coli. As to the kind of experiment: Antimicrobial activity against Escherichia coli MTCC 739 assessed as growth inhibition after 24 hr by agar streak dilution technique. Particulars: MTCC 739, 24 h.
Assay [6] has as its system Bacillus subtilis. The assay can be described thus: Antimicrobial activity against Bacillus subtilis MTCC 430 assessed as growth inhibition after 24 hr by agar streak dilution technique. Particulars: MTCC 430, 24 h.
The test system of assay [7] is Staphylococcus aureus. The assay can be described thus: Antimicrobial activity against Staphylococcus aureus MTCC 96 assessed as growth inhibition after 24 hr by agar streak dilution technique. Particulars: MTCC 96, 24 h.
Assay [8] relates to Candida albicans. As to the kind of experiment: Antimicrobial activity against Candida albicans MTCC 183 assessed as diameter of growth inhibition zone after 24 hr by paper disk diffusion technique. (In agar diffusion tests the substance spreads into inoculated agar from a disc or well.)
Assay [9] has as its system Aspergillus niger. The assay can be described thus: Antimicrobial activity against Aspergillus niger MTCC 282 assessed as diameter of growth inhibition zone after 24 hr by paper disk diffusion technique.
Assay [10] has as its system Pseudomonas aeruginosa. As to the kind of experiment: Antimicrobial activity against Pseudomonas aeruginosa MTCC 741 assessed as diameter of growth inhibition zone after 24 hr by paper disk diffusion technique.
Assay [11] deals with Escherichia coli. The assay can be described thus: Antimicrobial activity against Escherichia coli MTCC 739 assessed as diameter of growth inhibition zone after 24 hr by paper disk diffusion technique.
The test system of assay [12] is Bacillus subtilis. As to the kind of experiment: Antimicrobial activity against Bacillus subtilis MTCC 430 assessed as diameter of growth inhibition zone after 24 hr by paper disk diffusion technique.
The subject of assay [13] is Staphylococcus aureus. As to the kind of experiment: Antimicrobial activity against Staphylococcus aureus MTCC 96 assessed as diameter of growth inhibition zone after 24 hr by paper disk diffusion technique.

In the case of `O=C1C(Cl)C(c2cc3ccccc3nc2Cl)N1c1ccccc1` (stereo not given), the “growth inhibition (GI)” value in assay [1] was found to be 90%. The MIC – broadly, the lowest concentration that inhibits growth of the organism – is 500 µg/mL (≈ 1460 µM) in [1]; 100 µg/mL (≈ 291 µM) with Candida albicans [2]; 100 µg/mL (≈ 291 µM) with Aspergillus niger [3]; 100 µg/mL (≈ 291 µM) in the assay on Pseudomonas aeruginosa [4]; 100 µg/mL (≈ 291 µM) in the assay on Escherichia coli [5]; 100 µg/mL (≈ 291 µM) in the assay on Bacillus subtilis [6]. In addition, in the assay on Staphylococcus aureus [7], the MIC was determined as 100 µg/mL (≈ 291 µM). The “diameter of the inhibition zone (DIZ)” value in the assay on Candida albicans [8], in the assay with Aspergillus niger [9], in the assay on Pseudomonas aeruginosa [10], in the assay with Escherichia coli [11], in the assay on Bacillus subtilis [12] and in the assay on Staphylococcus aureus [13] was less than 10 mm in each case.
`Cc1ccccc1N1C(=O)C(Cl)C1c1cc2ccccc2nc1Cl` (stereo not given): the “growth inhibition (GI)” value in [1] is given as 91%. In addition, the MIC was found to be 1000 µg/mL (≈ 2800 µM) in [1]; 100 µg/mL (≈ 280 µM) in the assay with Candida albicans [2]; 100 µg/mL (≈ 280 µM) in the assay with Aspergillus niger [3]; 100 µg/mL (≈ 280 µM) with Pseudomonas aeruginosa [4]; 100 µg/mL (≈ 280 µM) with Escherichia coli [5]; 100 µg/mL (≈ 280 µM) in the assay on Bacillus subtilis [6]. Also, in the assay on Staphylococcus aureus [7], the MIC is 100 µg/mL (≈ 280 µM). Moreover, the “diameter of the inhibition zone (DIZ)” value in the assay on Candida albicans [8] was less than 10 mm; in the assay with Aspergillus niger [9] it was less than 10 mm; in the assay on Pseudomonas aeruginosa [10] it was less than 10 mm; in the assay on Escherichia coli [11], less than 10 mm; with Bacillus subtilis [12] it was less than 10 mm; with Staphylococcus aureus [13], 16 mm.
`Cc1cccc(N2C(=O)C(Cl)C2c2cc3ccccc3nc2Cl)c1` (stereo not given): in assay [1], the “growth inhibition (GI)” value was 90%. Also, the MIC in [1] turned out to be 500 µg/mL (≈ 1400 µM); in the assay with Candida albicans [2], 100 µg/mL (≈ 280 µM); in the assay with Aspergillus niger [3], 100 µg/mL (≈ 280 µM); in the assay with Pseudomonas aeruginosa [4], 100 µg/mL (≈ 280 µM); with Escherichia coli [5] it was 100 µg/mL (≈ 280 µM); in the assay with Bacillus subtilis [6], 100 µg/mL (≈ 280 µM). The MIC with Staphylococcus aureus [7] is 100 µg/mL (≈ 280 µM). The “diameter of the inhibition zone (DIZ)” value in the assay with Candida albicans [8] is less than 10 mm; with Aspergillus niger [9], 20 mm; with Pseudomonas aeruginosa [10] it was 16 mm; with Escherichia coli [11] it was 14 mm; in the assay with Bacillus subtilis [12], 18 mm; in the assay on Staphylococcus aureus [13], less than 10 mm.
As to `Cc1ccc(N2C(=O)C(Cl)C2c2cc3ccccc3nc2Cl)cc1` (stereo not given), the “growth inhibition (GI)” value in assay [1] is 94%. Further, the MIC in assay [1] amounted to 200 µg/mL (≈ 560 µM); with Candida albicans [2], 100 µg/mL (≈ 280 µM); in the assay on Aspergillus niger [3], 100 µg/mL (≈ 280 µM); with Pseudomonas aeruginosa [4] it was 100 µg/mL (≈ 280 µM); in the assay with Escherichia coli [5] it was 100 µg/mL (≈ 280 µM); in the assay with Bacillus subtilis [6], 100 µg/mL (≈ 280 µM). In addition, in the assay on Staphylococcus aureus [7], the MIC was 100 µg/mL (≈ 280 µM). Further, the “diameter of the inhibition zone (DIZ)” value with Candida albicans [8] is on record as 19 mm; in the assay with Aspergillus niger [9] it was less than 10 mm; in the assay with Pseudomonas aeruginosa [10], 13 mm; in the assay with Escherichia coli [11], 15 mm; in the assay with Bacillus subtilis [12], 16 mm; in the assay with Staphylococcus aureus [13] it was 17 mm.
For `O=C1C(Cl)C(c2cc3ccccc3nc2Cl)N1c1ccccc1[N+](=O)[O-]` (stereo not given), the “growth inhibition (GI)” value in assay [1] came to 92%. Further, the MIC amounted to 250 µg/mL (≈ 644 µM) in assay [1]; 100 µg/mL (≈ 258 µM) in the assay with Candida albicans [2]; 50 µg/mL (≈ 129 µM) with Aspergillus niger [3]; 62.5 µg/mL (≈ 161 µM) with Pseudomonas aeruginosa [4]; 100 µg/mL (≈ 258 µM) in the assay on Escherichia coli [5]; 62.5 µg/mL (≈ 161 µM) in the assay with Bacillus subtilis [6]. The MIC with Staphylococcus aureus [7] was determined as 100 µg/mL (≈ 258 µM). Moreover, the “diameter of the inhibition zone (DIZ)” value in the assay on Candida albicans [8] is recorded as 20 mm; in the assay with Aspergillus niger [9], 22 mm; in the assay on Pseudomonas aeruginosa [10], 21 mm; in the assay with Escherichia coli [11], 22 mm; with Bacillus subtilis [12], 21 mm; in the assay with Staphylococcus aureus [13], 20 mm.
For the compound `O=C1C(Cl)C(c2cc3ccccc3nc2Cl)N1c1cccc([N+](=O)[O-])c1` (stereo not given), in assay [1], the “growth inhibition (GI)” value was found to be 93%. Besides, the MIC in [1] stood at 100 µg/mL (≈ 258 µM); in the assay on Candida albicans [2] it was 100 µg/mL (≈ 258 µM); with Aspergillus niger [3] it was 50 µg/mL (≈ 129 µM); in the assay with Pseudomonas aeruginosa [4] it was 50 µg/mL (≈ 129 µM); in the assay on Escherichia coli [5], 62.5 µg/mL (≈ 161 µM); with Bacillus subtilis [6] it was 50 µg/mL (≈ 129 µM). The MIC in the assay on Staphylococcus aureus [7] is 25 µg/mL (≈ 64.4 µM). For the same compound, the “diameter of the inhibition zone (DIZ)” value was 19 mm with Candida albicans [8]; 26 mm in the assay with Aspergillus niger [9]; 22 mm in the assay on Pseudomonas aeruginosa [10]; 22 mm in the assay with Escherichia coli [11]; 21 mm in the assay on Bacillus subtilis [12]; 25 mm in the assay on Staphylococcus aureus [13].
For the compound `O=C1C(Cl)C(c2cc3ccccc3nc2Cl)N1c1ccc([N+](=O)[O-])cc1` (stereo not given), the “growth inhibition (GI)” value in assay [1] turned out to be 96%. For the same compound, the MIC is 50 µg/mL (≈ 129 µM) in assay [1]; 100 µg/mL (≈ 258 µM) with Candida albicans [2]; 50 µg/mL (≈ 129 µM) in the assay on Aspergillus niger [3]; 12.5 µg/mL (≈ 32.2 µM) in the assay with Pseudomonas aeruginosa [4]; 100 µg/mL (≈ 258 µM) in the assay on Escherichia coli [5]; 50 µg/mL (≈ 129 µM) with Bacillus subtilis [6]. Also, the minimum inhibitory concentration (MIC) in the assay with Staphylococcus aureus [7] is 12.5 µg/mL (≈ 32.2 µM). In addition, the “diameter of the inhibition zone (DIZ)” value in the assay on Candida albicans [8] was determined as 19 mm; in the assay on Aspergillus niger [9], 24 mm; with Pseudomonas aeruginosa [10], 23 mm; in the assay on Escherichia coli [11], 20 mm; in the assay on Bacillus subtilis [12], 23 mm; with Staphylococcus aureus [13], 25 mm.
Consider `O=C1C(Cl)C(c2cc3ccccc3nc2Cl)N1c1ccccc1Cl` (stereo not given), for which the “growth inhibition (GI)” value in assay [1] was 97%. Further, the MIC in assay [1] is 62.5 µg/mL (≈ 165 µM); in the assay with Candida albicans [2], 100 µg/mL (≈ 265 µM); in the assay with Aspergillus niger [3], 100 µg/mL (≈ 265 µM); in the assay on Pseudomonas aeruginosa [4], 50 µg/mL (≈ 132 µM); with Escherichia coli [5] it was 62.5 µg/mL (≈ 165 µM); in the assay with Bacillus subtilis [6] it was 12.5 µg/mL (≈ 33.1 µM). In the assay with Staphylococcus aureus [7], the minimal inhibitory concentration (MIC) worked out at 62.5 µg/mL (≈ 165 µM). Moreover, the “diameter of the inhibition zone (DIZ)” value in the assay with Candida albicans [8] turned out to be 18 mm; with Aspergillus niger [9] it was 19 mm; with Pseudomonas aeruginosa [10], 20 mm; in the assay on Escherichia coli [11] it was 21 mm; with Bacillus subtilis [12], 24 mm; with Staphylococcus aureus [13] it was 24 mm.
With `O=C1C(Cl)C(c2cc3ccccc3nc2Cl)N1c1cccc(Cl)c1` (stereo not given), the “growth inhibition (GI)” value in assay [1] is listed as 98%. The MIC in assay [1] stood at 50 µg/mL (≈ 132 µM); in the assay on Candida albicans [2], 62.5 µg/mL (≈ 165 µM); in the assay with Aspergillus niger [3], 62.5 µg/mL (≈ 165 µM); in the assay with Pseudomonas aeruginosa [4], 25 µg/mL (≈ 66.2 µM); in the assay on Escherichia coli [5], 62.5 µg/mL (≈ 165 µM); in the assay with Bacillus subtilis [6], 12.5 µg/mL (≈ 33.1 µM). In the assay with Staphylococcus aureus [7], the minimum inhibitory concentration (MIC) is 25 µg/mL (≈ 66.2 µM). Besides, the “diameter of the inhibition zone (DIZ)” value in the assay on Candida albicans [8] amounted to 20 mm; in the assay with Aspergillus niger [9], 25 mm; in the assay with Pseudomonas aeruginosa [10] it was 22 mm; in the assay with Escherichia coli [11], 21 mm; in the assay with Bacillus subtilis [12] it was 23 mm; in the assay on Staphylococcus aureus [13] it was 25 mm.
For `O=C1C(Cl)C(c2cc3ccccc3nc2Cl)N1c1ccc(Cl)cc1` (stereo not given), in assay [1], the “growth inhibition (GI)” value is 95%. The MIC in assay [1] stood at 100 µg/mL (≈ 265 µM); in the assay with Candida albicans [2] it was 62.5 µg/mL (≈ 165 µM); in the assay with Aspergillus niger [3], 100 µg/mL (≈ 265 µM); with Pseudomonas aeruginosa [4] it was 25 µg/mL (≈ 66.2 µM); with Escherichia coli [5] it was 50 µg/mL (≈ 132 µM); with Bacillus subtilis [6], 12.5 µg/mL (≈ 33.1 µM). For the same compound, the MIC with Staphylococcus aureus [7] is 50 µg/mL (≈ 132 µM). In addition, the “diameter of the inhibition zone (DIZ)” value with Candida albicans [8] is on record as 21 mm; with Aspergillus niger [9], 22 mm; in the assay with Pseudomonas aeruginosa [10], 23 mm; in the assay with Escherichia coli [11] it was 22 mm; with Bacillus subtilis [12], 24 mm; with Staphylococcus aureus [13] it was 21 mm.
